Test [1] addresses T1, STAT3 (Homo sapiens, UniProt P40763).
T1 construct: endogenous in cells; host or cells: LNCaP (human prostate cancer) stably carrying pSTAT3-TA-luc reporter plasmid
Nature of the test: STAT3 activation inhibition assay (reporter gene assay, LNcaP stable cell line, IL-6 stimulated). The format is cell-based. Particulars: LNcaP stable cell line [plasmid STAT3-TA-luc], IL-6 10 ng/mL, 48 hours, luciferase activity; read-out: IC50 (μM) pSTAT3. The protocol: Cancer cell lines used for evaluating the compounds of the Examples were purchased from ATCC (American Type Culture Collection) or KCLB (Korean Cell Line Bank), and cultured according to the vendor's recommendation. The human prostate cancer cell line stably expressing the STAT3 promoter (LNcaP stable cell line [plasmid STAT3-TA-luc])—which was prepared to evaluate the inhibitory effect of the compounds of the Examples against dimerization of STAT3—was cultured in RPMI1640 (Cat no. 11875, Gibco), 10% fetal bovine serum (Cat no. SH30071.03, Hyclone) and 150 μg/mL G418 solution (Cat no. 04 727 894 001, Roche).
The reporter gene assay of LNcap stable cell line was carried out by the use of RPMI 1640 medium containing 3% DCC-FBS (without G-418). The cell line was dispensed into two (2) white 96-well plates at 30,000 cells/well/50 μL. The cell line was incubated for 24 hours under the condition of 37° C. and 5% CO2, and then the Example compounds of 50 mM DMSO stock were diluted to various concentrations and treated to two (2) white 96-well plates containing cells. Then, IL-6 was treated to a final concentration of 10 ng/mL. After the treatment of Example compounds and IL-6, the cells were cultured for 48 hours under the condition of 37° C. and 5% CO2. After 48 hours, the 96-well plates were observed under a microscope to record the presence or absence of drug precipitation and specificities, and the 96-well plates were kept at room temperature for 30 minutes. Then, in the case of the first 96-well plate, the culture medium on the plate was removed to measure the luciferase activity, and treated with passive lysis buffer at 20 µL/well and shaken for 30 minutes. The luciferase activity was measured on microLUMA LB96P (BERTHOLD) or Centro XS LB 960 (BERTHOLD) instrument using Luciferase assay system (Cat No. E1501, Promega Corporation). In the case of the second 96-well plate, 20 μL of Glo-mix solution was added to measure cytotoxicity by the compounds of the Examples, and the plate was well shaken for 10 minutes and analyzed on microLUMA LB96P (BERTHOLD) instrument using Glo-vial protocol. As a negative control, a 96 well-plate in which culture medium was added but cells were not plated was used. As a positive control, a 96 well-plate in which cells were plated and 0.1% DMSO and culture medium containing stimulation were added was used.
The results of evaluating the inhibitory effects of the compounds of the Examples against dimerization of STAT3 and STAT1 via STAT3 and STAT1 reporter gene assay are represented in Table 1.
(Reporter assays use an easily measured gene product as a stand-in for the process of interest.)

The test system of test [2] is prostate cancer cell line (LNCap). Description: Cell growth inhibition assay (Celltiter Glo). Particulars: Homo sapiens, LNCap cells, 120 hours incubation. The format is cell-based. The protocol: Cancer cell inhibitory effects by the compounds of the Examples were evaluated as follows. The prostate cancer cell line (LNCap) used was cultured under the condition according to the vendor's recommendation. LNCap was dispensed into a 96-well plate at 10,000 cells/well. After incubation under the condition of 37° C. and 5% CO2 for 24 hours, the Example compounds of 50 mM DMSO stock were diluted to various concentrations and treated to the 96-well plate containing cells. After treatment of the Example compounds, LNCap cells were incubated in an incubator (37° C., 5% CO2) for 120 hours. After each incubation time, the 96-well plate was observed under a microscope to record the presence or absence of drug precipitation and specificities, and the 96-well plate was kept at room temperature for 30 minutes. Then, after addition of 20 μL of Celltiter Glo solution, the 96-well plate was well shaken for 30 minutes. The growth inhibitory activity was measured on microLUMA LB96P (BERTHOLD) instrument using Glo-vial protocol. As a negative control, a 96 well-plate in which culture medium was added but cells were not plated was used. As a positive control, a 96 well-plate in which cells were plated and 0.1% DMSO instead of drugs was added was used. The results of growth inhibitory effects of the Example compounds on prostate cancer cell line are represented in Table 2.
On the technique in general: ATP-based viability assays read luminescence as a measure of living cells.

This is an account of results in US12404249B2, “Heterocyclic derivatives and use thereof” (C&C RESEARCH LABORATORIES, priority 2018, dated 2025).

Bounds are passed on as bounds.

T1 sequence (P40763 whole entry): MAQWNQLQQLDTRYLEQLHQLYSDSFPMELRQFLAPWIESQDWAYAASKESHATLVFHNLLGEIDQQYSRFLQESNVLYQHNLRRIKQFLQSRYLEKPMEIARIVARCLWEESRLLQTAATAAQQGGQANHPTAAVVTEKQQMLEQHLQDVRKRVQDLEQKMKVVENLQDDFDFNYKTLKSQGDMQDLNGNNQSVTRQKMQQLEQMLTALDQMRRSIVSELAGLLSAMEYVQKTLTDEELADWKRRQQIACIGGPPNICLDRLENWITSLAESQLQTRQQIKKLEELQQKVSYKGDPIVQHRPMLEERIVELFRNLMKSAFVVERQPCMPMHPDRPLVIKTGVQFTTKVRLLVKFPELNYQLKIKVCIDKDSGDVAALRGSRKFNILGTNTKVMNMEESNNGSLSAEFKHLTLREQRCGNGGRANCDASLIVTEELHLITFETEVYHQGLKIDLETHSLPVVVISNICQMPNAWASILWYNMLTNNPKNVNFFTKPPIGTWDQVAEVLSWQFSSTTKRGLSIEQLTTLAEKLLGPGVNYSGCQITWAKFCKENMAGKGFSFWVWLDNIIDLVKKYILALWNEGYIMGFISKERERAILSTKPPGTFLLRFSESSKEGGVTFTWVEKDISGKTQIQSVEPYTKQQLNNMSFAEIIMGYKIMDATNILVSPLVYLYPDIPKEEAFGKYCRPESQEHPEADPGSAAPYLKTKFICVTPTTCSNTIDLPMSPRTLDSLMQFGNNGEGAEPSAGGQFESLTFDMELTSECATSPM

As a reminder, the IC50 is the concentration that gives 50% inhibition. With `NC(=O)COc1ccc2nc(Cl)cc(NCCc3ccc([N+](=O)[O-])cc3)c2c1` [Example 39, 2-((2-chloro-4-((4-nitrophenethyl)amino)quinolin-6-yl)oxy)acetamide], the IC50 in test [1] and in test [2] was over 50 µM each time.
In the case of `O=[N+]([O-])c1ccc(CCNc2cc(Cl)nc3c(F)cccc23)cc1` [Example 31, 2-chloro-8-fluoro-N-(4-nitrophenethyl)quinolin-4-amine], the values for the IC50 in test [1] and in test [2] were 0.12 µM and 0.21 µM, respectively.
Regarding `O=[N+]([O-])c1ccc(CCNc2nc(Cl)nc3[nH]cnc23)cc1` [Example 47, 2-chloro-N-(4-nitrophenethyl)-9H-purin-6-amine], the IC50 in test [1] and in test [2] was over 50 µM each time.
As to `CNc1cc(NCCc2ccc([N+](=O)[O-])cc2)c2ccccc2n1` [Example 51, N^2-methyl-N^4-(4-nitrophenethyl)quinolin-2,4-diamine 2,2,2-trifluoroacetate], the IC50 in test [1] was determined as 24.1 µM; in test [2], 27.7 µM.
In the same order, the values of `O=[N+]([O-])c1ccc(CCNc2cc(Cl)nc3ccc(O)cc23)cc1` [Example 35, 2-chloro-4-((4-nitrophenethyl)amino)quinolin-6-ol] are 2.3 µM and 7.3 µM.
In the same order, the values of `Cc1cccc2c(NCCc3ccc([N+](=O)[O-])cc3)cc(Cl)nc12` [Example 15, 2-chloro-8-methyl-N-(4-nitrophenethyl)quinolin-4-amine] are 3.1 µM and 1.6 µM.
As for `CS(=O)(=O)Nc1ccc(CCNc2cc(Cl)nc3ccc(-c4ccc(Cl)cc4Cl)cc23)cc1` [Example 57, N-(4-(2-((2-chloro-6-(2,4-dichlorophenyl)quinolin-4-yl)amino)ethyl)phenyl)methanesulfonamide], the IC50 in test [1] was 17.9 µM; in test [2], 8.6 µM.
In the same order, the values of `Cc1cnc2ccccc2c1NCCc1ccc(NS(C)(=O)=O)cc1` [Example 72, N-(4-(2-((3-methylquinolin-4-yl)amino)ethyl)phenyl)methanesulfonamide] are 0.62 µM and 1.4 µM.
For `CCOC(=O)c1ccc2nc(Cl)cc(NCCc3ccc([N+](=O)[O-])cc3)c2c1` [Example 16, ethyl 2-chloro-4-((4-nitrophenethyl)amino)quinolin-6-carboxylate] the same measures were over 50 µM and 21.8 µM.
In the same order, the values of `O=[N+]([O-])c1ccc(CCNc2cc(Cl)nc3ccccc23)cc1` [Example 1, 2-chloro-N-(4-nitrophenethyl)quinolin-4-amine] are 2.6 µM and 3.5 µM.
As to `CS(=O)(=O)Nc1ccc(CCNc2ncnc3[nH]ccc23)cc1` [Example 70, N-(4-(2-((7H-pyrrolo[2,3-d]pyrimidin-4-yl)amino)ethyl)phenyl)methanesulfonamide], the IC50 in test [1] worked out at 3.8 µM; in test [2] it was 10.8 µM.
In the same order, the values of `NS(=O)(=O)c1ccc(CCN(CCc2ccccc2)c2cc(Cl)nc3ccccc23)cc1` [Example 4, 4-(2-((2-chloroquinolin-4-yl)(phenethyl)amino)ethyl)benzenesulfonamide] are 20.9 µM and over 50 µM.
As to `CS(=O)(=O)Nc1ccc(CCNc2cc(Cl)nc3c(F)cccc23)cc1` [Example 45, N-(4-(2-((2-chloro-8-fluoroquinolin-4-yl)amino)ethyl)phenyl)methanesulfonamide], the IC50 in test [1] and in test [2] was 13.1 µM throughout.
With `O=[N+]([O-])c1ccc(CCNc2ncnc3ccc(F)cc23)cc1` [Example 61, 6-fluoro-N-(4-nitrophenethyl)quinazolin-4-amine], the IC50 was found to be 0.053 µM in test [1] and 0.19 µM in test [2].
In the same order, the values of `CS(=O)(=O)Nc1ccc(CCNc2cc(Cl)nc3ccccc23)cc1` [Example 7, N-(4-(2-((2-chloroquinolin-4-yl)amino)ethyl)phenyl)methanesulfonamide] are 0.038 µM and 0.078 µM.
In the same order, the values of `CS(=O)(=O)Nc1ccc(CCNc2ncnc3scnc23)cc1` [Example 69, N-(4-(2-(thiazolo[5,4-d]pyrimidin-7-ylamino)ethyl)phenyl)methanesulfonamide] are 0.046 µM and 0.13 µM.
In the same order, the values of `O=[N+]([O-])c1ccc(CCNc2cc(Cl)nc3cccc(OC(F)(F)F)c23)cc1` [Example 13, 2-chloro-N-(4-nitrophenethyl)-5-(trifluoromethoxy)quinolin-4-amine] are 3.1 µM and 2.5 µM.
Consider `CS(=O)(=O)Nc1ccc(CCNc2ccnc3cccc(OC(F)(F)F)c23)cc1` [Example 27, N-(4-(2-((5-(trifluoromethoxy)quinolin-4-yl)amino)ethyl)phenyl)methanesulfonamide], for which the IC50 in test [1] and in test [2] was 0.14 µM in each case.
Take `O=[N+]([O-])c1ccc(CCNc2cc(Cl)nc3ccc(S(=O)(=O)NCCc4ccc([N+](=O)[O-])cc4)cc23)cc1` [Example 19, 2-chloro-N-(4-nitrophenethyl)-4-((4-nitrophenethyl)amino)quinolin-6-sulfonamide]: the IC50 in test [1] was over 50 µM; in test [2], 18.4 µM.
In the same order, the values of `NNC(=O)c1ccc2nc(Cl)cc(NCCc3ccc([N+](=O)[O-])cc3)c2c1` [Example 44, 2-chloro-4-((4-nitrophenethyl)amino)quinolin-6-carbohydrazide] are over 50 µM and over 50 µM.
Take `O=[N+]([O-])c1ccc(CCNc2ccnc3ccccc23)cc1` [Example 17, N-(4-nitrophenethyl)quinolin-4-amine]: the IC50 in test [1] turned out to be 1.6 µM; in test [2], 4.7 µM.
Regarding `NC(=O)c1ccc2nc(Cl)cc(NCCc3ccc([N+](=O)[O-])cc3)c2c1` [Example 41, 2-chloro-4-((4-nitrophenethyl)amino)quinolin-6-carboxamide], the IC50 is 9.8 µM in test [1] and over 50 µM in test [2].
For `O=Nc1ccc(CCNc2cc(Cl)nc3ccccc23)cc1` [Example 20, 2-chloro-N-(4-nitrosophenethyl)quinolin-4-amine] the same measures were 0.75 µM and 0.74 µM.
For `CS(=O)(=O)N(O)c1ccc(CCNc2cc(Cl)nc3ccccc23)cc1` [Example 2, N-(4-(2-((2-chloroquinolin-4-yl)amino)ethyl)phenyl)-N-hydroxymethanesulfonamide] the same measures were 0.85 µM and 0.81 µM.
For `CS(=O)(=O)Nc1ccc(CCNc2nccc3ccccc23)cc1` [Example 75, N-(4-(2-(isoquinolin-1-ylamino)ethyl)phenyl)methanesulfonamide] the same measures were 4.3 µM and 6 µM.
With `Nc1ccc(CCNc2cc(Cl)nc3ccccc23)cc1` [Example 6, N-(4-aminophenethyl)-2-chloroquinolin-4-amine], the IC50 is 0.71 µM in test [1] and 0.69 µM in test [2].
In the same order, the values of `CCOC(=O)COc1ccc2nc(Cl)cc(NCCc3ccc([N+](=O)[O-])cc3)c2c1` [Example 37, ethyl 2-((2-chloro-4-((4-nitrophenethyl)amino)quinolin-6-yl)oxy)acetate] are 20.3 µM and 10.6 µM.
In the same order, the values of `CS(=O)(=O)Nc1ccc(CCNc2nc(C(F)(F)F)nc3ccccc23)cc1` [Example 53, N-(4-(2-((2-(trifluoromethyl)quinazolin-4-yl)amino)ethyl)phenyl)methanesulfonamide] are 3 µM and 15.7 µM.
